# Earlier results, collected in patent US8278478B2, “Process for the synthesis of hydrochloride salt of N-fatty acylsubstituted amino acid ethyl esters” (priority 2009, dated 2012).
# Settings: at 20° C.
smiles,measurement,value
"CCCCCCCCCCCC(=O)N[C@@H](CCCNC(=N)N)C(=O)OCC.Cl [Ethyl lauroyl arginate, ethyl-Nα-lauroyl-L-arginate HCl]",solubility in water,greater than 247 g/kg
